Laboratory results published in patent US20140288052A1, “SUBSTITUTED BICYCLIC AZA-HETEROCYCLES AND ANALOGUES AS SIRTUIN MODULATORS” (GlaxoSmithKline, LLC, priority 2011, published 2014).

How the values were obtained:
SIRT1 [1] = target: T1, SIRT1 (Homo sapiens, UniProt Q96EB6); experiment: TAMRA based mass spectrometry assay of SIRT1 deacetylase activation; assay type: biochemical; conditions: TAMRA peptide substrate; for TAMRA EC1.5 (μM): concentration that results in 150% activation of SIRT1; for TAMRA % Fold Act: percent maximum fold activation relative to control (100%)
T1 sequence (Q96EB6 1-747): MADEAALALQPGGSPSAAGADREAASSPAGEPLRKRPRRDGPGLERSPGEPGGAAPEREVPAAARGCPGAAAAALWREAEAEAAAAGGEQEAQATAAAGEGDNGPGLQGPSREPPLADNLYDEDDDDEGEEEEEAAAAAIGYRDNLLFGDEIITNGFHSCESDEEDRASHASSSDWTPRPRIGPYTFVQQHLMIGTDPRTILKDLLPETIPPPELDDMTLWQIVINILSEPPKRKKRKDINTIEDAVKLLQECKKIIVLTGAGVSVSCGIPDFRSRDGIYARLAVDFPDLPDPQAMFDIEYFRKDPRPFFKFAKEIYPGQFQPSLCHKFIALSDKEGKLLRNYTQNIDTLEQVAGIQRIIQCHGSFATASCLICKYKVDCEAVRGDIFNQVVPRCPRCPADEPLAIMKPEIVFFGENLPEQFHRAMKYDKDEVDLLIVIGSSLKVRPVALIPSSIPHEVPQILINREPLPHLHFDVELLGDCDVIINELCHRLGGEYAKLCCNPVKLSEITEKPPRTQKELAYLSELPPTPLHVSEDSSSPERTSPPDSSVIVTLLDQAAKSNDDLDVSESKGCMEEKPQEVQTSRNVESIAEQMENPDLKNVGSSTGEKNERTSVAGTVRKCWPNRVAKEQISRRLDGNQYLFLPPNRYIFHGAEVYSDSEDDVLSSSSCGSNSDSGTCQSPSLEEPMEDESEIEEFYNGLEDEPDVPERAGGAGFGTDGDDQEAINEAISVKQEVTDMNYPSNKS
Excerpt: (§1) Mass spectrometry based assays were used to identify modulators of SIRT1 activity. The TAMRA based assay utilized a peptide having 20 amino acid residues as follows: Ac-EE-K(biotin)-GQSTSSHSK(Ac)NleSTEG-K(5TMR)-EE-NH2 (SEQ ID NO: 1), wherein K(Ac) is an acetylated lysine residue and Nle is a norleucine. The peptide was labeled with the fluorophore 5TMR (excitation 540 nm/emission 580 nm) at the C-terminus. The sequence of the peptide substrate was based on p53 with several modifications. In addition, the methionine residue naturally present in the sequence was replaced with the norleucine because the methionine may be susceptible to oxidation during synthesis and purification. The Trp based assay utilized a peptide having an amino acid residues as follows: Ac-R-H-K-K(Ac)-W-NH2 (SEQ ID NO: 2).
The TAMRA based mass spectrometry assay was conducted as follows: 0.5 μM peptide substrate and 120 μM βNAD^+ was incubated with 10 nM SIRT1 for 25 minutes at 25° C. in a reaction buffer (50 mM Tris-acetate pH 8, 137 mM NaCl, 2.7 mM KCl, 1 mM MgCl2, 5 mM DTT, 0.05% BSA). The SIRT1 protein was obtained by cloning the SirT1 gene into a T7-promoter containing vector, which was then transformed and expressed in BL21(DE3) bacterial cells. Test compound was added at varying concentrations to this reaction mixture and the resulting reactions were monitored. After the 25 minute incubation with SIRT1, 10 μL of 10% formic acid was added to stop the reaction. The resulting reactions were sealed and frozen for later mass spec analysis. Determination of the amount of deacetylated substrate peptide formed (or, alternatively, the amount of O-acetyl-ADP-ribose (OAADPR) generated) by the sirtuin-mediated NAD-dependent deacetylation reaction allowed for the precise measurement of relative SIRT1 activity in the presence of varying concentrations of the test compound versus control reactions lacking the test compound.
(§2) A control for inhibition of sirtuin activity was conducted by adding 1 μL of 500 mM nicotinamide as a negative control at the start of the reaction (e.g., permits determination of maximum sirtuin inhibition). A control for activation of sirtuin activity was conducted using 10 nM of sirtuin protein, with 1 μL of DMSO in place of compound, to determine the amount of deacetylation of the substrate at a given time point within the linear range of the assay. This time point was the same as that used for test compounds and, within the linear range, the endpoint represents a change in velocity. For the above assay, SIRT1 protein was expressed and purified as follows. The SirT1 gene was cloned into a T7-promoter containing vector and transformed into BL21(DE3). The protein was expressed by induction with 1 mM IPTG as an N-terminal His-tag fusion protein at 18° C. overnight and harvested at 30,000×g. Cells were lysed with lysozyme in lysis buffer (50 mM Tris-HCl, 2 mM Tris[2-carboxyethyl] phosphine (TCEP), 10 μM ZnCl2, 200 mM NaCl) and further treated with sonication for 10 min for complete lysis. The protein was purified over a Ni-NTA column (Amersham) and fractions containing pure protein were pooled, concentrated and run over a sizing column (Sephadex S200 26/60 global). The peak containing soluble protein was collected and run on an Ion-exchange column (MonoQ). Gradient elution (200 mM-500 mM NaCl) yielded pure protein. This protein was concentrated and dialyzed against dialysis buffer (20 mM Tris-HCl, 2 mM TCEP) overnight. The protein was aliquoted and frozen at −80° C. until further use.
Sirtuin-modulating compounds of Formula (I) that activated SIRT1 were identified using the assay described above and are shown below in Table 1. The EC1.5 values represent the concentration of test compounds that result in 150% activation of SIRT1. The EC1.5 values for the activating compounds of Formula (I) are represented by A (EC1.5<1 μM), B (EC1.5 1−25 μM), C (EC1.5>25 μM). […]

SIRT1 [2] = target: T1, SIRT1; experiment: Trp mass spectrometry assay of SIRT1 deacetylase activation; assay type: biochemical; conditions: Trp peptide substrate; for TRP EC1.5 (μM): concentration that results in 150% activation of SIRT1; for TRP % Fold Act: percent maximum fold activation relative to control (100%)
Excerpt: as §1
The Trp mass spectrometry assay was conducted as follows. 0.5 μM peptide substrate and 120 μM βNAD^+ were incubated with 10 nM SIRT1 for 25 minutes at 25° C. in a reaction buffer (50 mM HEPES pH 7.5, […], 1 mM DTT, 0.05% BSA). The SIRT1 protein was obtained by cloning the SirT1 gene into a T7-promoter containing vector, which was then expressed in BL21(DE3) bacterial cells and purified as described in further detail below. Test compound was added at varying concentrations to this reaction mixture and the resulting reactions were monitored. After the 25 minute incubation with SIRT1, 10 μL of 10% formic acid was added to stop the reaction. The resulting reactions were sealed and frozen for later mass spec analysis. The relative SIRT1 activity was then determined by measuring the amount of O-acetyl-ADP-ribose (OAADPR) formed (or, alternatively, the amount of deacetylated Trp peptide generated) by the NAD-dependent sirtuin deacetylation reaction in the presence of varying concentrations of the test compound versus control reactions lacking the test compound. The degree to which the test agent activated deacetylation by SIRT1 was expressed as EC1.5 (i.e., the concentration of compound required to increase SIRT1 activity by 50% over the control lacking test compound), and Percent Maximum Activation (i.e., the maximum activity relative to control (100%) obtained for the test compound).
as §2
Sirtuin-modulating compounds of Formula (I) that activated SIRT1 were identified using the assay described above and are shown below in Table 1. […]

Row | SMILES | TAMRA EC1.5 (μM) (SIRT1 [1]) | TAMRA % Fold Act (SIRT1 [1]) | TRP EC1.5 (μM) (SIRT1 [2]) | TRP % Fold Act (SIRT1 [2])
1 | O=C(Nc1nccs1)c1ccnc2cc(-c3ccccc3C(F)(F)F)nn12 [Compound 79] | B (EC1.5 1−25 μM) | B (Fold Activation<350%) | A (EC1.5<1 μM) | B (Fold Activation<350%)
2 | O=C(Nc1ccccn1)c1cc(N2CCOCC2)nn2cc(-c3cccc(F)c3)nc12 [Compound 27] | C (EC1.5>25 μM) | B (Fold Activation<350%) | C (EC1.5>25 μM) | B (Fold Activation<350%)
3 | Cc1nc(C(=O)Nc2ccnc3cc(-c4ccccc4C(F)(F)F)nn23)cs1 [Compound 56] | A (EC1.5<1 μM) | A (Fold activation≧350%) | C (EC1.5>25 μM) | B (Fold Activation<350%)
4 | O=C(Nc1cccnc1)c1ccnc2cc(-c3ccccc3C(F)(F)F)nn12 [Compound 76] | B (EC1.5 1−25 μM) | A (Fold activation≧350%) | B (EC1.5 1−25 μM) | B (Fold Activation<350%)
5 | O=C(Nc1cccc(N2CCOCC2)n1)c1ccnc2cc(-c3cccc(C(F)(F)F)c3)nn12 [Compound 90] | C (EC1.5>25 μM) | B (Fold Activation<350%) | C (EC1.5>25 μM) | B (Fold Activation<350%)
6 | Cn1cnc(C(=O)Nc2ccnc3cc(-c4ccccc4C(F)(F)F)nn23)c1 [Compound 94] | A (EC1.5<1 μM) | A (Fold activation≧350%) | C (EC1.5>25 μM) | B (Fold Activation<350%)
7 | Cc1cnc(NC(=O)c2ccnn3cc(-c4cccc(F)c4)nc23)s1 [Compound 5] | C (EC1.5>25 μM) | B (Fold Activation<350%) | C (EC1.5>25 μM) | B (Fold Activation<350%)
8 | O=C(Nc1nccs1)c1cc(N2CCOCC2)nn2cc(-c3cccc(Cl)c3)nc12 [Compound 30] | C (EC1.5>25 μM) | B (Fold Activation<350%) | C (EC1.5>25 μM) | B (Fold Activation<350%)
9 | O=C(Nc1ccnc2cc(-c3ccccc3C(F)(F)F)nn12)c1ccncn1 [Compound 62] | B (EC1.5 1−25 μM) | B (Fold Activation<350%) | C (EC1.5>25 μM) | B (Fold Activation<350%)
10 | O=C(Nc1ccnc2cc(-c3ccccc3C(F)(F)F)nn12)c1ccccn1 [Compound 59] | A (EC1.5<1 μM) | A (Fold activation≧350%) | B (EC1.5 1−25 μM) | B (Fold Activation<350%)
11 | O=C(Nc1nccs1)c1ccnn2cc(-c3cccc(Cl)c3)nc12 [Compound 21] | C (EC1.5>25 μM) | B (Fold Activation<350%) | C (EC1.5>25 μM) | B (Fold Activation<350%)
12 | O=C(Nc1ccncc1)c1cc(N2CCOCC2)nn2cc(-c3cccc(F)c3)nc12 [Compound 29] | C (EC1.5>25 μM) | B (Fold Activation<350%) | C (EC1.5>25 μM) | B (Fold Activation<350%)
13 | O=C(Nc1cccc(CN2CCOCC2)n1)c1ccnc2cc(-c3cccc(C(F)(F)F)c3)nn12 [Compound 91] | C (EC1.5>25 μM) | B (Fold Activation<350%) | C (EC1.5>25 μM) | B (Fold Activation<350%)
14 | Cc1nc(C(=O)Nc2ccnc3cc(-c4ccccc4C(F)(F)F)nn23)c(C)s1 [Compound 57] | A (EC1.5<1 μM) | A (Fold activation≧350%) | B (EC1.5 1−25 μM) | B (Fold Activation<350%)
15 | O=C(Nc1ccnc2cc(-c3ccccc3C(F)(F)F)nn12)c1cncnc1 [Compound 104] | C (EC1.5>25 μM) | B (Fold Activation<350%) | C (EC1.5>25 μM) | B (Fold Activation<350%)
16 | O=C(Nc1cccc(CN2CCOCC2)n1)c1ccnc2cc(-c3ccccc3C(F)(F)F)nn12 [Compound 83] | A (EC1.5<1 μM) | A (Fold activation≧350%) | B (EC1.5 1−25 μM) | B (Fold Activation<350%)
17 | Cc1cccnc1C(=O)Nc1ccnc2cc(-c3ccccc3C(F)(F)F)nn12 [Compound 112] | A (EC1.5<1 μM) | A (Fold activation≧350%) | C (EC1.5>25 μM) | B (Fold Activation<350%)
18 | O=C(Nc1cccc(N2CCOCC2)n1)c1ccnc2cc(-c3ccccc3C(F)(F)F)nn12 [Compound 82] | A (EC1.5<1 μM) | A (Fold activation≧350%) | C (EC1.5>25 μM) | B (Fold Activation<350%)
19 | O=C(Nc1nccs1)c1ccnn2cc(-c3ccccc3F)nc12 [Compound 1] | C (EC1.5>25 μM) | B (Fold Activation<350%) | C (EC1.5>25 μM) | B (Fold Activation<350%)
